System: A549 cell line
Assay: Combination cell growth inhibition (Sytox Green, Loewe synergy), A549
Type: cell-based, human
Settings: Example 18 with selumetinib, 6x6 dosing matrix 0-10 μmol/L, 3 days, Loewe model, average of three or more experiments
Excerpt: A549 is a human non small cell lung cancer line carrying an oncogenic mutation in the KRAS gene (G12S). H2122 is a human non small cell lung cancer line carrying an oncogenic mutation in the KRAS gene (G12C). H2009 is a human non small cell lung cancer line carrying an oncogenic mutation in the KRAS gene (G12A). Calu6 is a human non small cell lung cancer line carrying mutation in the KRAS ([…]) gene. All cell lines were obtained from the American Type Culture Collection.
All cell line were maintained at 37° C. and 5% CO2 in a humidified atmosphere and grown in RPMI-1640 growth media supplemented with 10% FBS and 2 mmol/L glutamine. […]
Cells were seeded in 384-well black, clear bottomed plates (Greiner Bio-One, Stonehouse, UK), cultured for 18-24 hours and treated with increasing concentrations of Example 18 and selumetinib (0-10 μmol/L) in a 6×6 dosing matrix. […] After 3 days of treatment, live cell number was determined using a Sytox Green endpoint as described previously (“Davies B R, Greenwood H, Dudley P, et al: Preclinical pharmacology of AZD5363, an inhibitor of AKT: Pharmacodynamics, antitumor activity, and correlation of monotherapy activity with genetic background. Mol Cancer Ther 11(4):873-87, 2012”). […] Cells were then permeabilised by the overnight addition of saponin (0.03% final concentration, diluted in TBS-EDTA buffer) and a total cell count measured. […]

Compound COC[C@H]1Cn2cc(-c3nc(Nc4ccnn4C)ncc3C)nc2C(=O)N1Cc1ccc(F)c(F)c1 [Example 18, (R)-7-(3,4-Difluorobenzyl)-6-(methoxymethyl)-2-(5-methyl-2-((1-methyl-1H-pyrazol-5-yl)amino)pyrimidin-4-yl)-6,7-dihydroimidazo[1,2-a]pyrazin-8(5H)-one] has a Synergy score of 25.
